Source: patent EP1144365B1 (TANABE SEIYAKU CO., LTD., priority 1998, dated 2000)
pIC50: −log10 of the molar value.

Key:
α4β1 = target: T1, α4β1 (Homo sapiens, UniProt P05556+P13612); assay: Jurkat-CS-1 assay; type: cell-based; settings: Jurkat cell adhesion to immobilized CS-1 derived peptide
T1 construct: 100 µl of Jurkat cells (2.5 x 10^6 cells/ml) in DMEM plus BSA; host or cells: Jurkat T-cell line
Description: The CS-1 derived peptide, CLHPGEILDVPST, and the scrambled control peptide, CLHGPIELVSDPT, were synthesized on a Beckman 990 synthesizer using t-Boc methodology. The peptides were immobilized onto microtiter plates using the heterobifunctional crosslinker 3-(2-pyridyldithio)propionic acid N-hydroxysuccinimide ester (SPDP) as reported by Pierschbacher et al., Proc. Natl. Acad. USA, 80:1224-1227 (1983). Microtiter plates were coated with 20 µg/ml HSA for 2 hr. at room temperature, washed once with PBS and derivatized with 10 µg/ml SPDP for 1 hr. After washing, 100 µl of a 100 µg/ml cysteine containing peptide solution which had been recently dissolved was added to the wells and allowed to crosslink to the plates overnight at 4 °C. Unbound peptide was removed from plates by washing with PBS. To block non-reacted sites, the plates are coated with 100 µl of a 2.5 mg/ml BSA solution in PBS for 1 hr. at 37 °C. 100 µl of Jurkat cells (2.5 x 10^6 cells/ml) in DMEM plus BSA (2.5 mg/ml) was mixed with an appropriate concentration of the compound to be tested and the mixture was added to peptide coated dishes and incubated for 1 hr. at 37 °C. Generally 100, 20, 5 and 1.25 µM concentrations of the compound were tested.
Following this incubation the plates were washed once with PBS and the attached cells were fixed with 3% paraformaldehyde in PBS and stained with 0.5% toluidine blue in 3.7% formaldehyde. The cells were stained overnight at room temperature and the optical density at 590 nm of toluidine blue stained cells was determined using a vertical pathway spectrophotometer to quantitate attachment (VMAX Kinetic Microplate Reader, Molecular Devices, Menlo Park, CA). This procedure is a modification of a previously published method (Cardarelli et al, J. Biol. Chem., 269:18668-18673 (1994) and Cardarelli et al, Proc. Natl. Acad. Sci. USA, 83:2647-2651 (1986)).

α4β1 integrin = target: T2, α4β1 integrin (Homo sapiens, UniProt P05556+P13612); assay: Jurkat-Endothelial Cell Adhesion Assay (Jurkat EC); type: cell-based; settings: Jurkat cell adhesion to IL-1 stimulated endothelial cell monolayers
T2 construct: a T-cell line, Jurkat, known to express the α4β1 integrin; host or cells: Jurkat T-cell line
T2 sequence (P13612 34-1032): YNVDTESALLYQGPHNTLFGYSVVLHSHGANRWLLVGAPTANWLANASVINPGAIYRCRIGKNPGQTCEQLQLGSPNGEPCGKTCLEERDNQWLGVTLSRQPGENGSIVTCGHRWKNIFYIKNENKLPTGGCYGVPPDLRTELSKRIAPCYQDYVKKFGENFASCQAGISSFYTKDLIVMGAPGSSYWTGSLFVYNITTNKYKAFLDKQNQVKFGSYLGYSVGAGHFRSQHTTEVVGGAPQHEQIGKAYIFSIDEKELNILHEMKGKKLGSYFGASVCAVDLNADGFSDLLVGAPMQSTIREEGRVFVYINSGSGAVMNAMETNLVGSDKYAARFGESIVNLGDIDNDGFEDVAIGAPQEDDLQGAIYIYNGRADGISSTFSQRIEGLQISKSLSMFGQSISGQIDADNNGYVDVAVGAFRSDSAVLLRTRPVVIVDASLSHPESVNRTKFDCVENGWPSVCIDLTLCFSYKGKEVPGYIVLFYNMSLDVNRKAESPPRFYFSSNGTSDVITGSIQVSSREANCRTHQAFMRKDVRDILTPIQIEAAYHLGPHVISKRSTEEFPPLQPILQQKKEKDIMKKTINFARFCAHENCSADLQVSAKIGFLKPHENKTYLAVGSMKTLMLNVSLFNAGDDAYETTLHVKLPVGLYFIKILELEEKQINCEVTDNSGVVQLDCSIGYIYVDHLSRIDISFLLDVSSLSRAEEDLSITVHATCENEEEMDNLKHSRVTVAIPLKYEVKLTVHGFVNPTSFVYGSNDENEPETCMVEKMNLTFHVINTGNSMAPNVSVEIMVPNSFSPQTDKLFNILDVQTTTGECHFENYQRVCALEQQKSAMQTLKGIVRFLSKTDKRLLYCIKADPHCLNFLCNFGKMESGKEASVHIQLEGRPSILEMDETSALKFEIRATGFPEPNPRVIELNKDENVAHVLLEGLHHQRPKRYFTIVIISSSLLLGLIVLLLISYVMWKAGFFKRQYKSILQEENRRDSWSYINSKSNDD
T2 sequence (P05556 21-798): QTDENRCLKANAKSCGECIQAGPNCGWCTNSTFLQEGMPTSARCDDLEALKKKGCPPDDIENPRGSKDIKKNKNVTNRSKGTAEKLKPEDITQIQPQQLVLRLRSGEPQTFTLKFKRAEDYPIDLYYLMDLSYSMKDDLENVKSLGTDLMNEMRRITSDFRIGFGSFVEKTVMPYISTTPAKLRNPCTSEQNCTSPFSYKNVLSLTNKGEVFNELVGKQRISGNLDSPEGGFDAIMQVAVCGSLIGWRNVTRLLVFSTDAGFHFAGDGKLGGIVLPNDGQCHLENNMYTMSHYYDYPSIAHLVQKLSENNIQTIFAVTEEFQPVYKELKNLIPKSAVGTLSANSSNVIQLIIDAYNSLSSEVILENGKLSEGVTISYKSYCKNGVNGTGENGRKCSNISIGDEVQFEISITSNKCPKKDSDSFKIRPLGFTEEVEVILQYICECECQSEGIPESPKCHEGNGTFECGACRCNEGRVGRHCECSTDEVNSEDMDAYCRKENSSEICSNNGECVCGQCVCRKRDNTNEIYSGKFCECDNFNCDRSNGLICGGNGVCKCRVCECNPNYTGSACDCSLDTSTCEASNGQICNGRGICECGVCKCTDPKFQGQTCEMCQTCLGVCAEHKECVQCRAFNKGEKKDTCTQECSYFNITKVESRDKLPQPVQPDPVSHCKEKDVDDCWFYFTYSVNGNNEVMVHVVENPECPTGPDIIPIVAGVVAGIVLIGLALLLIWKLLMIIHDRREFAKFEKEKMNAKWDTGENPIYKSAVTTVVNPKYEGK
Description: The following assay established the activity of the present compounds in inhibiting β1-mediated cell adhesion in a representative in vitro system. This assay measures the adhesive interactions of a T-cell line, Jurkat, known to express the α4β1 integrin, to endothelial monolayers in the presence of test compounds. The test compounds were added in increasing concentrations to T-cells and then the T-cell compound mixture was added to IL-1 stimulated endothelial cell monolayers. The plates were incubated, washed and the percentage of attached cells was quantitated.
Human umbilical vein endothelial cells were purchased from Clonetics (San Diego, CA.) at passage number 2. The cells were grown on 0.5% porcine skin gelatin pre-coated flasks (Sigma, St. Louis MO.) in EGM-UV media (Clonetics, San Diego, CA) supplemented with 10% fetal bovine serum. Cells are refed every 2-3 days reaching confluence by day 4 to 6. […] The endothelial cells are not used following passage 6.
The T-cell line Jurkat was obtained from American Type Tissue Culture Collection (Rockville, MD) and the cells were cultured in RPMI containing 10 % fetal calf serum. The cells were washed twice in Hank's Balanced Salt Solution (HBSS) and resuspended in Dulbecco's Minimal Eagle's Media (DMEM) containing 2.5 mg/ml Human Serum Albumin (HSA). Jurkat cells (1x10^6 cells/ml) were stained with 10 ng/ml BCECF-AM (Molecular Probes, Eugene, OR)) in HBSS without phenol red. The cells were loaded with BCECF for 60 minutes in the dark at 37°C, washed 2 times, and resuspended in DMEM-HSA solution.
Confluent endothelial monolayers, grown in 96-well tissue culture plates, were stimulated for 4 hr. at 37 °C with 0.1 ng/ml (∼50 U/ml) recombinant IL-1 (Amgen, Thousand Oaks, CA). Following this incubation, the monolayers were washed twice with HBSS and 0.1 ml of DMEM-HSA solution was added. Jurkat cells (5 x 10^5 cells) were combined with the appropriate concentration of the test compound and 0.1 ml of the Jurkat cell-compound mixture was added to the endothelial cell monolayers. Generally, 100, 20, 5 and 1.25 µM compound concentrations were tested. […] Following this incubation, the monolayers were washed twice with PBS containing 1 mM calcium chloride and 1 mM magnesium chloride' and the plates were read using a Millipore Cytofluor 2300 (Marlboro, MA.). Fluorescence in each well was measured as Arbitrary Fluorescence Units and percent adhesion in the absence of compound was adjusted to 100% and the % adhesion in the presence of compound was calculated. Monolayers were also fixed in 3% paraformaldehyde and evaluated microscopically to verify the adhesion. This procedure is a modification of a previously published method (Cardarelli et al., J. Biol. Chem. 269:18668-18673 (1994)).

T1 sequence (P13612 34-1032): as the sequence (P13612 34-1032) above
T1 sequence (P05556 21-798): as the sequence (P05556 21-798) above

| Structure (SMILES) | pIC50 (α4β1) | pIC50 (α4β1 integrin) |
| --- | --- | --- |
| CC(C)(Sc1ccccc1C(=O)O)C(=O)N[C@@H](Cc1ccc(NC(=O)c2c(Cl)cccc2Cl)cc1)C(=O)O [Example 25] | 6.00 to 6.30 | ≥ 6.10 |
| O=C(O)/C=C\C(=O)Nc1cccc(C(=O)N[C@@H](Cc2ccc(NC(=O)c3c(Cl)cccc3Cl)cc2)C(=O)O)c1 [Example 36] | 6.00 to 6.30 | 5.30 to 6.10 |
| O=C(O)/C=C/C(=O)Nc1cccc(C(=O)N[C@@H](Cc2ccc(NC(=O)c3c(Cl)cccc3Cl)cc2)C(=O)O)c1 [Example 37] | 6.00 to 6.30 | 5.00 to 5.30 |
| O=C(N[C@@H](Cc1ccc(NC(=O)c2c(Cl)cccc2Cl)cc1)C(=O)O)c1cccc(NC(=O)C2CCCC(C(=O)O)C2)c1 (stereo partly drawn) [Example 38] | 6.00 to 6.30 | 5.30 to 6.10 |
| O=C(O)c1cncc(C(=O)Nc2cccc(C(=O)N[C@@H](Cc3ccc(NC(=O)c4c(Cl)cccc4Cl)cc3)C(=O)O)c2)c1 [Example 44] | 6.30 to 7.10 | 5.00 to 5.30 |
| O=C(O)CCC(=O)NC1(C(=O)N[C@@H](Cc2ccc(NC(=O)c3c(Cl)cccc3Cl)cc2)C(=O)O)CCCCC1 [Example 46] | 6.30 to 7.10 | 5.30 to 6.10 |
| O=C(O)CC1(CC(=O)NC2(C(=O)N[C@@H](Cc3ccc(NC(=O)c4c(Cl)cccc4Cl)cc3)C(=O)O)CCCCC2)CCCC1 [Example 47] | 6.30 to 7.10 | 5.00 to 5.30 |
| CC(C)(CC(=O)O)CC(=O)NC1(C(=O)N[C@@H](Cc2ccc(NC(=O)c3c(Cl)cccc3Cl)cc2)C(=O)O)CCCCC1 [Example 48] | 6.30 to 7.10 | 5.30 to 6.10 |
| O=C(O)/C=C\C(=O)NC1(C(=O)N[C@@H](Cc2ccc(NC(=O)c3c(Cl)cccc3Cl)cc2)C(=O)O)CCCCC1 [Example 49] | 6.30 to 7.10 | ≥ 6.10 |
| O=C(O)/C=C/C(=O)NC1(C(=O)N[C@@H](Cc2ccc(NC(=O)c3c(Cl)cccc3Cl)cc2)C(=O)O)CCCCC1 [Example 50] | 6.00 to 6.30 | 5.00 to 5.30 |
| COCCC(=O)NC1(C(=O)N[C@@H](Cc2ccc(NC(=O)c3c(Cl)cccc3Cl)cc2)C(=O)O)CCCCC1 [Example 51] | ≥ 7.10 | 5.30 to 6.10 |
| O=C(Nc1ccc(C[C@H](NC(=O)C2(NC(=O)C3CCCC(C(=O)O)C3)CCCCC2)C(=O)O)cc1)c1c(Cl)cccc1Cl (stereo partly drawn) [Example 52] | ≥ 7.10 | 5.30 to 6.10 |
| CC(=O)CCC(=O)NC1(C(=O)N[C@@H](Cc2ccc(NC(=O)c3c(Cl)cccc3Cl)cc2)C(=O)O)CCCCC1 [Example 53] | ≥ 7.10 | ≥ 6.10 |
| COc1ccc(C(=O)NC2(C(=O)N[C@@H](Cc3ccc(NC(=O)c4c(Cl)cccc4Cl)cc3)C(=O)O)CCCCC2)cc1OC [Example 55] | 6.30 to 7.10 | 5.30 to 6.10 |
| O=C(O)c1ccccc1C(=O)NC1(C(=O)N[C@@H](Cc2ccc(NC(=O)c3c(Cl)cccc3Cl)cc2)C(=O)O)CCCCC1 [Example 56] | 6.30 to 7.10 | 5.30 to 6.10 |
| O=C(O)c1cccc(C(=O)NC2(C(=O)N[C@@H](Cc3ccc(NC(=O)c4c(Cl)cccc4Cl)cc3)C(=O)O)CCCCC2)c1 [Example 57] | 6.30 to 7.10 | ≥ 6.10 |
| O=C(O)c1cncc(C(=O)NC2(C(=O)N[C@@H](Cc3ccc(NC(=O)c4c(Cl)cccc4Cl)cc3)C(=O)O)CCCCC2)c1 [Example 59] | 6.30 to 7.10 | 5.30 to 6.10 |
| O=C(NC1(C(=O)N[C@@H](Cc2ccc(NC(=O)c3c(Cl)cccc3Cl)cc2)C(=O)O)CCCCC1)c1cccnc1 [Example 61] | 6.30 to 7.10 | ≥ 6.10 |

| Structure (SMILES) | pIC50 (α4β1) | pIC50 (α4β1 integrin) |
| --- | --- | --- |
| O=C(O)c1cccc(C(=O)NC2(C(=O)N[C@@H](Cc3ccc(NC(=O)c4c(Cl)cccc4Cl)cc3)C(=O)O)CCCCC2)n1 [Example 62] | 6.30 to 7.10 | 5.30 to 6.10 |
| O=C(O)c1ccc(C(=O)NC2(C(=O)N[C@@H](Cc3ccc(NC(=O)c4c(Cl)cccc4Cl)cc3)C(=O)O)CCCCC2)nc1 [Example 63] | 6.30 to 7.10 | ≥ 6.10 |
| O=C(NC1(C(=O)N[C@@H](Cc2ccc(NC(=O)c3c(Cl)cccc3Cl)cc2)C(=O)O)CCCCC1)c1cc(O)c2ccccc2n1 [Example 64] | 6.30 to 7.10 | 5.30 to 6.10 |
| O=C(NC1(C(=O)N[C@@H](Cc2ccc(NC(=O)c3c(Cl)cccc3Cl)cc2)C(=O)O)CCCCC1)c1cc(C(=O)O)[nH]n1 [Example 65] | 6.30 to 7.10 | 5.30 to 6.10 |
| O=C(Nc1ccc(C[C@H](NC(=O)C2(NC(=O)C3NC(C(=O)O)CS3)CCCCC2)C(=O)O)cc1)c1c(Cl)cccc1Cl (stereo partly drawn) [Example 66] | 6.30 to 7.10 | ≥ 6.10 |
| O=C(NC1(C(=O)N[C@@H](Cc2ccc(NC(=O)c3c(Cl)cccc3Cl)cc2)C(=O)O)CCCCC1)c1ccc([N+](=O)[O-])o1 [Example 67] | 6.30 to 7.10 | ≥ 6.10 |
| O=C(Nc1ccc(C[C@H](NC(=O)C2(NC(=O)C3CCCO3)CCCCC2)C(=O)O)cc1)c1c(Cl)cccc1Cl (stereo partly drawn) [Example 68] | 6.30 to 7.10 | ≥ 6.10 |
| O=C(Nc1ccc(C[C@H](NC(=O)C2(NC(=O)C3CCOC3)CCCCC2)C(=O)O)cc1)c1c(Cl)cccc1Cl (stereo partly drawn) [Example 69] | 6.30 to 7.10 | ≥ 6.10 |
| O=C(NC1(C(=O)N[C@@H](Cc2ccc(NC(=O)c3c(Cl)cccc3Cl)cc2)C(=O)O)CC2CCC1C2)c1cccnc1 (stereo partly drawn) [Example 70] | 6.30 to 7.10 | 5.30 to 6.10 |
| O=C(O)c1cccc(C(=O)NC2(C(=O)N[C@@H](Cc3ccc(NC(=O)c4c(Cl)cccc4Cl)cc3)C(=O)O)CC3CCC2C3)n1 (stereo partly drawn) [Example 71] | 6.30 to 7.10 | 5.30 to 6.10 |
| O=C(O)c1ccc(C(=O)NC2(C(=O)N[C@@H](Cc3ccc(NC(=O)c4c(Cl)cccc4Cl)cc3)C(=O)O)CC3CCC2C3)nc1 (stereo partly drawn) [Example 72] | 6.30 to 7.10 | ≥ 6.10 |
| O=C(NC1(C(=O)N[C@@H](Cc2ccc(NC(=O)c3c(Cl)cccc3Cl)cc2)C(=O)O)CC2CCC1C2)c1cc(O)c2ccccc2n1 (stereo partly drawn) [Example 73] | 6.00 to 6.30 | 5.30 to 6.10 |
| O=C(NC1(C(=O)N[C@@H](Cc2ccc(NC(=O)c3c(Cl)cccc3Cl)cc2)C(=O)O)CC2CCC1C2)c1cc(C(=O)O)[nH]n1 (stereo partly drawn) [Example 74] | 6.30 to 7.10 | 5.30 to 6.10 |
| O=C(Nc1ccc(C[C@H](NC(=O)C2(NC(=O)C3NC(C(=O)O)CS3)CC3CCC2C3)C(=O)O)cc1)c1c(Cl)cccc1Cl (stereo partly drawn) [Example 75] | 6.30 to 7.10 | ≥ 6.10 |
| O=C(NC1(C(=O)N[C@@H](Cc2ccc(NC(=O)c3c(Cl)cccc3Cl)cc2)C(=O)O)CC2CCC1C2)c1ccc([N+](=O)[O-])o1 (stereo partly drawn) [Example 76] | 6.30 to 7.10 | 5.30 to 6.10 |
| O=C(Nc1ccc(C[C@H](NC(=O)C2(NC(=O)C3CCCO3)CC3CCC2C3)C(=O)O)cc1)c1c(Cl)cccc1Cl (stereo partly drawn) [Example 77] | 6.30 to 7.10 | ≥ 6.10 |
| O=C(Nc1ccc(C[C@H](NC(=O)C2(NC(=O)C3CCOC3)CC3CCC2C3)C(=O)O)cc1)c1c(Cl)cccc1Cl (stereo partly drawn) [Example 78] | 6.30 to 7.10 | ≥ 6.10 |
| O=C(NC1CCCCC1C(=O)NC(Cc1ccc(NC(=O)c2c(Cl)cccc2Cl)cc1)C(=O)O)c1cccnc1 (stereo not drawn) [Example 79] | 6.30 to 7.10 | 5.30 to 6.10 |
